The text below walks through data of patent US9113629B2, “4-amino-6-(4-substituted-phenyl)-picolinates and 6-amino-2-(4-substituted-phenyl)-pyrimidine-4-carboxylates and their use as herbicides” (DOW AGROSCIENCES LLC, priority 2013, dated 2015).

Like-named read-outs stand apart in the source and are kept apart here.

What all share (experiment): Post-emergent Test III, herbicidal activity in wheat and barley
Holding throughout (format): in vivo

The subject of assay [1] is SETVI: green foxtail (Setaria viridis). To be noted: for pest or weed control at 35 g/ha / pest or weed control at 70 g/ha / pest or weed control at 140 g/ha: Setaria viridis, post-emergence, 504 h, read-out: Visual Growth Reduction (%) 21 Days After Application SETVI; for pest or weed control at 35 g/ha: 35 g ai/ha; for pest or weed control at 70 g/ha: 70 g ai/ha; for GR50 SETVI / GR80 SETVI: probit analysis; for pest or weed control at 140 g/ha: 140 g ai/ha. A digest of the protocol: (§1)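 GR20, GR50, GR80 and GR90 come from probit analysis of visual injury scores (0 = none, 100 = complete kill) taken 21 d after treatment. Foliar application was by track sprayer delivering 187 L/ha at five rates, from high down to 1/16×, onto greenhouse plants at the 2–3 leaf stage, with solvent-blank controls.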

In assay [2] the test system is ALOMY: black-grass (Alopecurus myosuroides). To be noted: for pest or weed control at 35 g/ha / pest or weed control at 70 g/ha / pest or weed control at 140 g/ha: Alopecurus myosuroides, post-emergence, 504 h, read-out: Visual Growth Reduction (%) 21 Days After Application ALOMY; for pest or weed control at 35 g/ha: 35 g ai/ha; for pest or weed control at 70 g/ha: 70 g ai/ha; for pest or weed control at 140 g/ha: 140 g ai/ha; for GR50 ALOMY / GR80 ALOMY: probit analysis, 21 days after application; for GR50 ALOMY: dose for growth reduction of 50 percent; for GR80 ALOMY: dose for growth reduction of 80 percent. Put shortly: as §1

Assay [3] has as its system PAPRH: common poppy (Papaver rhoeas). To be noted: for pest or weed control at 35 g/ha / pest or weed control at 70 g/ha / pest or weed control at 140 g/ha: Papaver rhoeas, post-emergence, 504 h, read-out: Visual Growth Reduction (%) 21 Days After Application PAPRH; for pest or weed control at 35 g/ha: 35 g ai/ha; for pest or weed control at 70 g/ha: 70 g ai/ha; for pest or weed control at 140 g/ha: 140 g ai/ha; for GR50 PAPRH / GR80 PAPRH: probit analysis. A digest of the protocol:
as §1

The subject of assay [4] is BROTE: downy brome (Bromus tectorum). To be noted: for pest or weed control at 35 g/ha / pest or weed control at 70 g/ha / pest or weed control at 140 g/ha: Bromus tectorum, post-emergence, 504 h, read-out: Visual Growth Reduction (%) 21 Days After Application BROTE; for pest or weed control at 35 g/ha: 35 g ai/ha; for pest or weed control at 70 g/ha: 70 g ai/ha; for pest or weed control at 140 g/ha: 140 g ai/ha; for GR50 BROTE / GR80 BROTE: probit analysis, 21 days after application; for GR50 BROTE: dose for growth reduction of 50 percent; for GR80 BROTE: dose for growth reduction of 80 percent. A digest of the protocol:
as §1

The mark [5] stands for this setting: Table 9, dose for 50 percent growth reduction, 21 d.
Setting [6] is: Table 9, dose for 80 percent growth reduction, 21 d.
[7] abbreviates: dose for growth reduction of 50 percent, 21 days after application.
Where [8] appears, read: dose for growth reduction of 80 percent, 21 days after application.
The mark [9] stands for this setting: Table 8, dose for 50 percent growth reduction, 21 d.
[10] abbreviates: Table 8, dose for 80 percent growth reduction, 21 d.

For `C#Cc1ccc(-c2nc(N)c(OC)c(C(=O)O)n2)cc1` [Compound 28], in assay [1] (Table 9, post-emergent, 21 d), the pest or weed control at 35 g/ha was in the range of 0 to 29% and the pest or weed control at 70 g/ha is 0 to 29%. In addition, in assay [1] (setting [5]), the “GR50 SETVI” value is recorded as greater than 140 g ai/ha. Moreover, the “GR80 SETVI” value in assay [1] (setting [6]) is reported as greater than 140 g ai/ha.
As for `COC(=O)c1nc(-c2ccc(Br)cc2F)nc(N)c1OC` [Compound 35], in assay [1] (Table 9, post-emergent, 21 d), the pest or weed control at 35 g/ha is 0 to 29% and the pest or weed control at 70 g/ha fell in the range of 30 to 44%. Further, in assay [1] (setting [5]), the “GR50 SETVI” value is given as 79 g ai/ha. In assay [1] (setting [6]), the “GR80 SETVI” value is listed as greater than 140 g ai/ha.
Consider `COc1c(N)nc(-c2ccc(Br)cc2F)nc1C(=O)O` [Compound 46], for which, in assay [1] (Table 9, post-emergent, 21 d), the pest or weed control at 35 g/ha was 0 to 29%, the pest or weed control at 70 g/ha fell in the range of 30 to 44% and the pest or weed control at 140 g/ha was in the range of 30 to 44%. For the same compound, the “GR50 SETVI” value in assay [1] (setting [5]) is greater than 140 g ai/ha. The “GR80 SETVI” value in assay [1] (setting [6]) was greater than 140 g ai/ha.
With `Nc1cc(-c2ccc(Br)c(F)c2F)nc(C(=O)O)c1Cl` [Compound 91], in assay [1], the pest or weed control at 35 g/ha lay in the range of 60 to 74%, the pest or weed control at 70 g/ha is 75 to 84% and the pest or weed control at 140 g/ha is 75 to 84%. For the same compound, the “GR50 SETVI” value in assay [1] (setting [7]) amounted to 6 g ai/ha. Further, in assay [1] (setting [8]), the “GR80 SETVI” value amounted to 105 g ai/ha. In addition, in assay [2], the pest or weed control at 35 g/ha was in the range of 45 to 59%, the pest or weed control at 70 g/ha fell in the range of 45 to 59%, the pest or weed control at 140 g/ha lay in the range of 45 to 59% and the “GR50 ALOMY” value stood at 98 g ai/ha. Moreover, the “GR80 ALOMY” value in assay [2] is listed as greater than 140 g ai/ha. In addition, in assay [3], the pest or weed control at 35 g/ha is 95 to 100%, the pest or weed control at 70 g/ha lay in the range of 95 to 100% and the pest or weed control at 140 g/ha lay in the range of 95 to 100%. Further, in assay [3] (setting [7]), the “GR50 PAPRH” value is recorded as 1 g ai/ha. Besides, in assay [3] (setting [8]), the “GR80 PAPRH” value is listed as 1 g ai/ha. In addition, in assay [4], the pest or weed control at 35 g/ha is 45 to 59%, the pest or weed control at 70 g/ha lay in the range of 45 to 59%, the pest or weed control at 140 g/ha fell in the range of 30 to 44% and the “GR50 BROTE” value came to 29 g ai/ha. Further, in assay [4], the “GR80 BROTE” value was greater than 140 g ai/ha.
For the compound `Nc1cc(-c2ccc(Br)c(F)c2)nc(C(=O)O)c1Cl` [Compound 110, 4-Amino-6-(4-bromo-3-fluorophenyl)-3-chloropicolinic acid], in assay [3] (Table 8, post-emergent, 21 d), the pest or weed control at 35 g/ha fell in the range of 95 to 100% and the pest or weed control at 70 g/ha lay in the range of 95 to 100%. In addition, the “GR50 PAPRH” value in assay [3] (setting [9]) was found to be 1 g ai/ha. The “GR80 PAPRH” value in assay [3] (setting [10]) is 1 g ai/ha.
Turning to `COc1c(N)nc(-c2ccc(Br)c(F)c2)nc1C(=O)O` [Compound 113, 6-Amino-2-(4-bromo-3-fluorophenyl)-5-methoxypyrimidine-4-carboxylic acid], in assay [3] (Table 8, post-emergent, 21 d), the pest or weed control at 35 g/ha was 95 to 100% and the pest or weed control at 70 g/ha lay within 95 to 100%. In addition, in assay [3] (setting [9]), the “GR50 PAPRH” value is given as 1 g ai/ha. For the same compound, the “GR80 PAPRH” value in assay [3] (setting [10]) was 1 g ai/ha.
Turning to `C#Cc1ccc(-c2nc(N)c(OC)c(C(=O)O)n2)c(F)c1F` [Compound 154], in assay [1] (Table 9, post-emergent, 21 d), the pest or weed control at 35 g/ha lay in the range of 30 to 44%, the pest or weed control at 70 g/ha was in the range of 60 to 74% and the pest or weed control at 140 g/ha is 75 to 84%. Also, the “GR50 SETVI” value in assay [1] (setting [5]) is 56 g ai/ha. For the same compound, the “GR80 SETVI” value in assay [1] (setting [6]) is 109 g ai/ha.
On to `Nc1cc(-c2ccc(Br)cc2)nc(C(=O)O)c1Cl` [Compound 168], for which, in assay [1] (Table 9, post-emergent, 21 d), the pest or weed control at 35 g/ha is 45 to 59% and the pest or weed control at 70 g/ha fell in the range of 60 to 74%. In assay [1] (setting [5]), the “GR50 SETVI” value stood at 28 g ai/ha. The “GR80 SETVI” value in assay [1] (setting [6]) came out at 70 g ai/ha.
Turning to `COC(=O)c1nc(-c2ccc(F)c(F)c2F)c(F)c(N)c1Cl` [Compound 186], in assay [2], the pest or weed control at 35 g/ha was 0 to 29%, the pest or weed control at 70 g/ha was in the range of 0 to 29%, the pest or weed control at 140 g/ha fell in the range of 0 to 29% and the “GR50 ALOMY” value was greater than 140 g ai/ha. For the same compound, in assay [2], the “GR80 ALOMY” value is listed as greater than 140 g ai/ha. Besides, in assay [4], the pest or weed control at 35 g/ha was in the range of 0 to 29%, the pest or weed control at 70 g/ha lay within 0 to 29%, the pest or weed control at 140 g/ha lay in the range of 0 to 29% and the “GR50 BROTE” value is reported as greater than 140 g ai/ha. Also, in assay [4], the “GR80 BROTE” value is on record as greater than 140 g ai/ha.
As for `COC(=O)c1nc(-c2ccc(F)cc2)c(F)c(N)c1Cl` [Compound 204], in assay [2], the pest or weed control at 35 g/ha was 0 to 29%, the pest or weed control at 70 g/ha fell in the range of 45 to 59%, the pest or weed control at 140 g/ha was in the range of 45 to 59% and the “GR50 ALOMY” value was determined as 105 g ai/ha. For the same compound, the “GR80 ALOMY” value in assay [2] is on record as greater than 140 g ai/ha. Further, in assay [4], the pest or weed control at 35 g/ha lay within 0 to 29%, the pest or weed control at 70 g/ha was 0 to 29%, the pest or weed control at 140 g/ha lay in the range of 30 to 44% and the “GR50 BROTE” value is recorded as greater than 140 g ai/ha. Besides, in assay [4], the “GR80 BROTE” value is listed as greater than 140 g ai/ha.
For `Nc1c(F)c(-c2ccc(Cl)c(F)c2)nc(C(=O)O)c1Cl` [Compound 217], in assay [1], the pest or weed control at 35 g/ha lay in the range of 75 to 84%, the pest or weed control at 70 g/ha fell in the range of 75 to 84% and the pest or weed control at 140 g/ha is 75 to 84%. Besides, the “GR50 SETVI” value in assay [1] (setting [7]) turned out to be 46 g ai/ha. Also, the “GR80 SETVI” value in assay [1] (setting [8]) was greater than 140 g ai/ha. For the same compound, in assay [2], the pest or weed control at 35 g/ha lay in the range of 75 to 84%, the pest or weed control at 70 g/ha lay in the range of 85 to 94%, the pest or weed control at 140 g/ha lay in the range of 85 to 94% and the “GR50 ALOMY” value was 12 g ai/ha. Moreover, the “GR80 ALOMY” value in assay [2] was determined as 31 g ai/ha. Besides, in assay [3], the pest or weed control at 35 g/ha lay in the range of 95 to 100%, the pest or weed control at 70 g/ha was in the range of 95 to 100% and the pest or weed control at 140 g/ha was 95 to 100%. Moreover, the “GR50 PAPRH” value in assay [3] (setting [7]) is reported as 1 g ai/ha. For the same compound, the “GR80 PAPRH” value in assay [3] (setting [8]) is 1 g ai/ha. Moreover, in assay [4], the pest or weed control at 35 g/ha fell in the range of 75 to 84%, the pest or weed control at 70 g/ha lay in the range of 85 to 94%, the pest or weed control at 140 g/ha lay in the range of 85 to 94% and the “GR50 BROTE” value turned out to be 15 g ai/ha. Besides, the “GR80 BROTE” value in assay [4] is recorded as 33 g ai/ha.
